Laboratory results from a compilation of properties of binary mixtures (doi:10.1016/j.molliq.2020.114573).

Assay: xn = mol fraction of the nth substance listed
Details: 101.3 kPa

CC1COC(=O)O1 (centres undefined) + CCCC[n+]1ccn(C)c1.O=S(=O)([N-]S(=O)(=O)C(F)(F)F)C(F)(F)F
viscosity [mPa·s]
Details	x2 = 0	x2 = 0.1013	x2 = 0.1557	x2 = 0.3071	x2 = 0.4128	x2 = 0.5045	x2 = 0.6	x2 = 0.7	x2 = 0.8079	x2 = 0.8776
288.15 K	3.063	5.14	6.77	12.5	18.43	24.64	32.48	43.74	55.8	64.4
293.15 K	2.746	4.535	5.9	10.63	15.39	20.32	–	35.25	44.52	–
298.15 K	2.476	–	5.19	9.12	13.04	–	21.83	–	36.14	41.16
303.15 K	2.246	3.605	4.596	7.92	11.15	–	18.29	24.03	–	–
308.15 K	2.049	–	–	6.95	–	–	15.52	20.24	24.9	28.07
313.15 K	1.879	2.945	3.69	6.14	8.42	–	13.31	17.63	21.07	–
318.15 K	1.73	2.683	3.339	5.47	7.42	9.33	11.54	–	18.27	20.13
323.15 K	1.6	2.455	3.038	4.91	–	8.21	10.09	–	16.06	17.66
328.15 K	1.486	2.258	2.778	4.422	5.88	7.29	8.9	11.5	13.99	15.53
333.15 K	1.385	2.085	2.552	4.014	5.3	6.52	7.91	10.04	12.18	–
338.15 K	1.294	1.931	2.354	–	4.79	5.86	7.07	8.82	10.66	11.9
343.15 K	1.213	1.796	2.18	3.353	4.359	5.3	6.36	7.8	9.39	10.46
348.15 K	–	1.676	–	3.085	3.984	4.82	5.76	6.96	8.33	9.23

CCCC[n+]1ccn(C)c1.O=S(=O)([N-]S(=O)(=O)C(F)(F)F)C(F)(F)F + CC1COC(=O)O1
x1 = 1
Details	viscosity [mPa·s]
293.15 K	63.1
298.15 K	50.5
303.15 K	41.13
313.15 K	28.4
318.15 K	24.03
323.15 K	20.54
333.15 K	15.91
338.15 K	14.02
343.15 K	12.37
348.15 K	10.91

CC1COC(=O)O1 (centres undefined) + CC[n+]1ccn(C)c1.O=S(=O)([N-]S(=O)(=O)C(F)(F)F)C(F)(F)F
x2 = 0
Details	viscosity [mPa·s]
288.15 K	3.063
293.15 K	2.746
298.15 K	2.476
308.15 K	2.049
313.15 K	1.879
323.15 K	1.6
328.15 K	1.486
333.15 K	1.385
343.15 K	1.213
348.15 K	1.14

CC1COC(=O)O1 (centres undefined) + CC[n+]1ccn(C)c1C.O=S(=O)([N-]S(=O)(=O)C(F)(F)F)C(F)(F)F
x2 = 0
Details	viscosity [mPa·s]
293.15 K	2.746
298.15 K	2.476
303.15 K	2.246
313.15 K	1.879
318.15 K	1.73
323.15 K	1.6
328.15 K	1.486
333.15 K	1.385
338.15 K	1.294
343.15 K	1.213

CC1COC(=O)O1 (centres undefined) + FC(S(=O)(=O)[N-]S(=O)(=O)C(F)(F)F)(F)F.C(CCC)N1C(=[N+](C=C1)C)C
x2 = 0
Details	viscosity [mPa·s]
298.15 K	2.476
303.15 K	2.246
308.15 K	2.049
313.15 K	1.879
318.15 K	1.73
323.15 K	1.6
328.15 K	1.486
333.15 K	1.385
338.15 K	1.294
348.15 K	1.14
